Measurements published in the NIST ThermoML archive (doi:10.1016/j.jct.2016.02.027).
± gives the expanded uncertainty stated by the source.

Key:
[1] = 298.15 K; 101.33 kPa; Liquid; Vibrating tube method
[2] = xn = mol fraction of the nth substance listed; conditions: 298.15 K, 101.3 kPa, Liquid, Vibrating tube method

`CCCC[N+]1(C)CCCC1.O=S(=O)([N-]S(=O)(=O)C(F)(F)F)C(F)(F)F` showed a mass density [1] of 1394.68 ± 6 kg/m3.
`CCCC[N+]1(C)CCCC1.O=S(=O)([N-]S(=O)(=O)C(F)(F)F)C(F)(F)F` + CCCCCCCC showed a mass density ([2]; x2 = 0.042) of 1384.07 ± 4.5 kg/m3.
Work on `CCCC[N+]1(C)CCCC1.O=S(=O)([N-]S(=O)(=O)C(F)(F)F)C(F)(F)F` + CCCCCCCCCC yielded a mass density ([2]; x2 = 0.023) of 1387.66 ± 4.5 kg/m3.
Compound `CCCC[N+]1(C)CCCC1.O=S(=O)([N-]S(=O)(=O)C(F)(F)F)C(F)(F)F` + c1ccccc1 has a mass density ([2]; x2 = 0.81) of 1117.76 ± 4.3 kg/m3 and a mass density ([2]; x2 = 0.811) of 1118.57 ± 4.3 kg/m3.
